The source of these data is patent US20120277199A1, “Modulation of Gel Temperature of Poloxamer-Containing Formulations” (Otonomy, Inc., priority 2009, published 2012).

≈ marks a conversion by molar mass, not a printed value.

Series [1] can be described thus: In vitro dissolution in snapwells, mean dissolution time (MDT). It is filed as physicochemical.
Experimental: Dissolution was performed at 37° C. in snapwells (6.5 mm diameter polycarbonate membrane with a pore size of 0.4 μm). […] Samples were taken every hour (0.1 mL withdrawn and replaced with warm buffer).
Dissolution is performed at 37° C. in snapwells (6.5 mm diameter polycarbonate membrane with a pore size of 0.4 μm), 0.2 mL of a gel formulation described herein is placed into snapwell and left to harden, then 0.5 mL buffer is placed into reservoir and shaken using a Labline orbit shaker at 70 rpm. Samples are taken every hour (0.1 mL withdrawn and replace with warm buffer). […] Pluronic concentration is analyzed at 624 nm using the cobalt thiocyanate method.
The mean dissolution time (MDT) is the sum of different periods of time the drug molecules stay in the matrix before release, divided by the total number of molecules and is optionally calculated by:
Dissolution was performed at 37° C. in snapwells (6.5 mm diameter polycarbonate membrane with a pore size of 0.4 μm), 0.2 mL of formulation was placed into snapwell and left to harden, then 0.5 mL of 0.9% saline was placed into reservoir and shaken using a Labline orbit shaker at 70 rpm. Samples were taken every hour (0.1 mL withdrawn and replace with warm buffer). Samples analyzed for dexamethasone and ciprofloxacin concentration by UV at 245 and 270 nm, respectively using a Evolution 160 UV/Vis spectrophotometer (Thermo Scientific). Quantitation performed against an external calibration standard.
Dissolution was performed at 37° C. in snapwells (6.5 mm diameter polycarbonate membrane with a pore size of 0.4 μm), 0.2 mL of gel was placed into snapwell and left to harden, 0.5 mL of 0.9% saline was placed into reservoir and shaken using a Labline orbit shaker at 70 rpm. Samples were taken every hour (All the saline withdrawn and replace with warm 0.9% saline with an osmolality of 290 mOsm). Samples were analyzed for Ciprofloxacin by HPLC.
A short description of series [2]: Perilymph pharmacokinetics after intratympanic injection in guinea pigs. The note with it: guinea pig, in vivo. Here is the method:
Guinea pigs were administered 50 μl via intratympanic delivery and PK in the perilymph was measured as described herein.
Female guinea pigs (Charles River) weighing 200-300 g, of approximately 6-8 weeks of age are used (N=4 per group). Prior to any procedure, animals are anesthetized using a combination of xylazine (10 mg/kg), ketamine (40 mg/kg) and acepromazine (0.75 mg/kg) for up to an hour via the intramuscular route. If needed, an intraoperative booster is administered intraperitoneally representing one-tenth of the original dose. Intratympanic injection—Each animal is positioned so that the head is tilted at an angle to favor injection towards the round window niche. Briefly, under visualization with an operating microscope, 50 μl of formulations comprising 0 to 50% active agent and varying concentrations of P407 are administered to the animals. […] During the procedure and until recovery, animals are placed on a temperature controlled (40° C.) heating pad until consciousness is regained at which time they are returned to the vivarium. Perilymph sampling procedure—The skin behind the ear of anesthetized guinea pigs is shaved and disinfected with povidone-iodine. An incision is then made behind the ear, and muscles are carefully retracted from over the bulla. […]
Determination of active agent concentrations is performed using high pressure liquid chromatography (HPLC) combined with mass spectrometry detection (MS). […] The samples are analyzed by reversed phase HPLC (1100 series, Agilent) using an Atlantis dC18 column maintained at 40° C. The mobile phase is nebulized using heating nitrogen in a Z-spray source/interface and the ionized compounds detected using MS/MS (Tandem quadrupole mass spectrometer, Quattro Ultima, Waters). Peak heights of an active agent are determined using MassLynx software (Waters). […]
Pharmacokinetic parameters are calculated using conventional noncompartmental pharmacokinetic methods. The apparent clearance (CL app) is calculated as the ratio between the administered intratympanic dose and the exposure (AUC). […]

The next series is described as follows: physchem. The note with it: aqueous with cosolvent or surfactant or cyclodextrin, thermodynamic from solid. Here is the method:
In addition, modifying the solubility of the active agent can also have an effect on the properties of the thermosensitive gel.
A formulation comprising 0.5% w/w SP600125 in 16% Poloxamer 407 was made by dispersing 5.3 mg of SP600125 (LC Labs) in 994.7 mg of a 16% P407 in 50 mM Tris buffer.

The conditions of series [3]: cited from earlier work.
For series [4] the following is noted: systemically administered (oral or intravenously); cited from earlier work.
A short description of series [5]: Stability to autoclaving (impurity profile, assay, pH, osmolality, appearance). The note with it: autoclaving at 250° F. for 30 minutes in P407. It is filed as physicochemical.
Experimental: Cold 16% P407 in 50 mM TRIS buffers-saline (pH 7.4 and osmolality of 280 mOsM) was placed in a open container, then ciprofloxacin free base or ciprofloxacin free base hydrate (3.5 moles) was sprinkled in while mixing. Ciprofloxacin suspension was mixed for not less than 10 minutes, then micronized dexamethasone was added slowly to the mixture while mixing. The homogenous suspension was then transferred to 3 mL vials and filled at different volumens (v1=4 g, v2, 3 g and v3 2 g). The glass vial were sealed with West stoppers (fluorotec coated) and Aluminum seals, followed by autoclaving at 250° F. for 30 minutes.
Weigh 58.8 g of the above buffer, chill down, then sprinkle while mixing 11.291 g of poloxamer 407 NF (BASF lot WPNF580C), mix until fully dissolved. Weigh 64.8 g of a the 16% P407 (above solution) into a 100 mL glass bottle containing a 35 mm stir bar then sprinkle 2.2915 g of ciprofloxacin hydrate (Neuland lot CHI071000). Mix for not less than 2 hours at a setting of 11 (IKA stir plate) minutes while cooling then fill 31 two mL vials with approximately 2 g of suspension, stopper them with 13 mm West stoppers and seal them with Al seal, autoclave for 30 minutes @ 250° C.

In the case of `C[C@@H]1C[C@H]2[C@@H]3CCC4=CC(=O)C=C[C@]4(C)[C@@]3(F)[C@@H](O)C[C@]2(C)[C@@]1(O)C(=O)COP(=O)(O)O` [DSP, dexamethasone sodium phosphate], the MDT entry in series [1] (17% Poloxamer 407 formulation) is given as “about 3 h”; in series [1] (DSP aqueous solution, micronized DEX suspension in water (no poloxamer)), 0.3 h.

For `C[C@H]1C[C@@H]2[C@H]([C@@H](O)C[C@@]3(C)[C@H]2CC[C@]3(O)C(=O)COC(=O)CCC(=O)[O-])[C@@]2(C)C=CC(=O)C=C12.[Na+]` [MPS], the MDT result in series [1] (17% Poloxamer 407 formulation) is “about 3 h”. Moreover, the “peak methylprednisolone levels in the perilymph” value in series [2] is 6.5 µg/mL.

On to `C[C@H]1C[C@@H]2[C@H]([C@@H](O)C[C@@]3(C)[C@H]2CC[C@]3(O)C(=O)CO)[C@@]2(C)C=CC(=O)C=C12` [MP], for which, in series [2], the “decrease of perilymph levels after peak” value is “decreased slowly over 10 days” and the “peak methylprednisolone levels in the perilymph” value was found to be 19.2 µg/mL.

What is called solubility is the concentration that dissolves in the medium under given conditions. A higher solubility goes with a readily soluble substance. Take `O=C1c2ccccc2-c2n[nH]c3cccc1c23` [SP600125, anthra[1,9-cd]pyrazol-6(2H)-one]: the solubility in “physchem” is approximately 190 µg/mL (≈ 863 µM). Besides, the reported water solubility in series [3] was 11 µg/mL. Moreover, the “LogD (7.4)” value in series [3] (pH 7.4) is listed as 3.2.

For `O=P(O)(O)C(O)(Cn1ccnc1)P(=O)(O)O` [Zoledronate], the “amount reaching the perilymph in the inner ear and/or otic bone structure” value in series [4] was “about 0.1 ng/day”. In addition, the “in vitro mean dissolution time (MDT)” value in series [1] (16% P407 formulation, FIG. 6) came to 2 h.

With `CN(C)CCC=C1c2ccccc2CCc2ccccc21` [amitriptyline], the water solubility entry in series [3] is on record as “greater than 100 mg/mL”.

Regarding `O=C(O)c1cn(C2CC2)c2cc(N3CCNCC3)c(F)cc2c1=O` [ciprofloxacin free base hydrate, ciprofloxacin hydrate], the “change observed after autoclaving” value in series [5] (hydrate) is given as “minimal growth or recrystallization”.

With `O=C(O)c1cn(C2CC2)c2cc(N3CCNCC3)c(F)cc2c1=O` [ciprofloxacin free base, ciprofloxacin], in series [5], the “change observed after autoclaving” value is given as “appreciable particle size increase”.

For the molecule `Cc1cccc(CN2CCN(C(c3ccccc3)c3ccc(Cl)cc3)CC2)c1` (stereo not shown) [meclizine], the solubility in water result in series [3] is recorded as “insoluble in water”.

With `O=P(O)(O)C(O)(Cc1cccnc1)P(=O)(O)O` [rosidronate], the “amount reaching the perilymph in the inner ear and/or otic bone structure” value in series [4] is “about 0.6 ng/day”.
